Experimental data from US6218431A, “Substituted biphenyls” (Bayer Corporation, priority 1997, dated 2001).
Where two headings read alike, the source gives them in different places.

Molecular target: T1, glucagon receptor (Homo sapiens, UniProt P47871)
T1 construct: expressed in transfected cells; host or cells: Chinese Hamster Ovary cells (CHO-HGR), membranes
Assay: glucagon receptor binding assay (125I-glucagon, CHO-HGR membranes)
Conditions: for inhibition at 20 µM: reported where 20 μM did not reduce glucagon binding by 50%; for IC50: 60 min at room temperature
Procedure, shortened: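 Membranes from CHO cells expressing glucagon receptor (10 ug protein) in Tris pH 7.4 buffer with EDTA, BSA and bacitracin, incubated with test compound and 125I-glucagon (9 fmol) 60 min at room temperature. Bound radioactivity counted after filtration; nonspecific binding defined with 1 μM native glucagon; 0.5% DMSO.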

T1 sequence (P47871 26-477): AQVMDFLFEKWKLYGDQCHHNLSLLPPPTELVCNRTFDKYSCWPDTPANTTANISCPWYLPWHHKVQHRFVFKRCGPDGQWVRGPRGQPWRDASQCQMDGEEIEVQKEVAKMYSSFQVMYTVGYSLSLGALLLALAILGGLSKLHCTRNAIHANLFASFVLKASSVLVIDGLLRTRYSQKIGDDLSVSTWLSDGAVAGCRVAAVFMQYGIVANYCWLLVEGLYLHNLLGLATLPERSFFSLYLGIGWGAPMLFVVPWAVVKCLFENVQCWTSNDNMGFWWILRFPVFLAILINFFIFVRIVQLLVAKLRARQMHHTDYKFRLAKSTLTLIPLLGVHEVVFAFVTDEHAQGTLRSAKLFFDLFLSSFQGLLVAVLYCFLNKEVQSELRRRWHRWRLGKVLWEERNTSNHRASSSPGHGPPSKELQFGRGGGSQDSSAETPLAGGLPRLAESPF

IC50 (125I-glucagon, read-out: IC50)	SMILES	also measured
–	CCCC=Cc1c(C(C)C)nc(C(C)C)c(CO)c1-c1ccc(S(C)(=O)=O)cc1 [Example 176, 2,6-Diisopropyl-3-hydroxymethyl-4-[4-(methylsulfonyl)phenyl]-5-(pent-1-enyl)pyridine]	inhibition at 20 µM: 13.8%
–	CCCCCc1c(C(C)C)nc(C(C)C)c(CO)c1-c1ccc(F)c(C(O)c2ccc(F)cc2)c1 (stereo not drawn) [Example 181, 2,6-Diisopropyl-3-hydroxymethyl-4-[4-fluoro-3-(α-hydroxy-4-fluorobenzyl)phenyl]-5-pentylpyridine]	inhibition at 20 µM: 46%
–	CCCCCc1c(C(C)C)nc(C(C)C)c(CO)c1-c1ccc(F)c(C(C)O)c1 (stereo not drawn) [Example 182, 2,6-Diisopropyl-3-hydroxymethyl-4-[4-fluoro-3-(1-hydroxyethyl)phenyl]-5-pentylpyridine]	inhibition at 20 µM: 49.1%
20 µM	CCCCCc1c(C(C)C)nc(C(C)C)c(CO)c1-c1cccnc1 [Example 186, 2,6-Diisopropyl-3-hydroxymethyl-4-(pyridin-3-yl)-5-pentylpyridine]	–
12 µM	CCCC=Cc1c(C(C)C)nc(C(C)C)c(CO)c1-c1ccoc1 [Example 187, 2,6-Diisopropyl-3-hydroxymethyl-4-(3-furyl)-5-(pent-1-enyl)pyridine]	–
10.5 µM	CCCCCc1c(C(C)C)nc(C(C)C)c(CO)c1-c1ccoc1 [Example 188, 2,6-Diisopropyl-3-hydroxymethyl-4-(3-furyl)-5-pentylpyridine]	–
0.3 µM	CCCCCc1c(C(C)C)cc(C(C)C)c(CO)c1-c1ccc(F)cc1 [Example 190, 3,5-Diisopropyl-2-hydroxymethyl-6-pentyl-4'-fluoro-1,1'-biphenyl]	–
0.13 µM	CCCCCc1c(C(C)C)cc(C(C)C)c(C(C)O)c1-c1ccc(F)cc1 (stereo not drawn) [Example 191, 3,5-Diisopropyl-2-(1-hydroxyethyl)-6-pentyl-4'-fluoro-1,1'-biphenyl]	–
1 µM	CCCC=Cc1c(C(C)C)cc(C(C)C)c(CO)c1-c1ccc(F)cc1 [Example 194, 3,5-Diisopropyl-2-hydroxymethyl-6-(pent-1-enyl)-4'-fluoro-1,1'-biphenyl]	–
12 µM	CCCc1c(C)cc(C)c(C(C)O)c1-c1ccc(F)cc1 (stereo not drawn) [Example 195, 3,5-Dimethyl-2-(1-hydroxyethyl)-6-propyl-4'-fluoro-1,1'-biphenyl]	–
–	C=CCc1c(C)cc(C)c(C(C)O)c1-c1ccc(F)cc1 (stereo not drawn) [Example 196, 3,5-Dimethyl-2-(1-hydroxyethyl)-6-(prop-2-enyl)-4'-fluoro-1,1'-biphenyl]	inhibition at 20 µM: 40.3%
–	CCCCCc1c(C)nc(C(C)C)c(CO)c1-c1ccc(F)cc1 [Example 197, 2-Isopropyl-3-hydroxymethyl-4-(4-fluorophenyl)-5-pentyl-6-methyl-pyridine]	IC50 (IC50, 125I-glucagon): 7 µM
17 µM	CCCCCc1c(C(C)C)nc(C)c(CO)c1-c1ccc(F)cc1 [Example 198, 2-Isopropyl-3-pentyl-4-(4-fluorophenyl)-5-hydroxymethyl-6-methylpyridine]	–
–	CCCCCc1c(CN2CCOCC2)nc(C(C)C)c(CO)c1-c1ccc(F)cc1 [Example 199, 2-Morpholinomethyl-3-pentyl-4-(4-fluorophenyl)-5-hydroxymethyl-6-isopropylpyridine]	inhibition at 20 µM: 8.67%
–	CCCCCc1c(CO)nc(C(C)C)c(CO)c1-c1ccc(F)cc1 [Example 200, 2,5-Bis(hydroxymethyl)-3-pentyl-4-(4-fluorophenyl)-6-isopropylpyridine]	inhibition at 20 µM: 32.8%
–	CCCCCc1c(COC)nc(C(C)C)c(CO)c1-c1ccc(F)cc1 [Example 201, 2-Methoxymethyl-3-pentyl-4-(4-fluorophenyl)-5-hydroxymethyl-6-isopropylpyridine]	inhibition at 20 µM: 46.7%
9 µM	CCCCCc1c(COCC)nc(C(C)C)c(CO)c1-c1ccc(F)cc1 [Example 202, 2-Ethoxymethyl-3-pentyl-4-(4-fluorophenyl)-5-hydroxymethyl-6-isopropylpyridine]	–
6.3 µM	C=CCOCc1nc(C(C)C)c(CO)c(-c2ccc(F)cc2)c1CCCCC [Example 203, 2-(Prop-2-enyloxy)methyl-3-pentyl-4-(4-fluorophenyl)-5-hydroxymethyl-6-isopropylpyridine]	–
18 µM	C=CCC(O)c1nc(C(C)C)c(CO)c(-c2ccc(F)cc2)c1CCCCC (stereo not drawn) [Example 205, 2-(1-Hydroxybut-3-enyl)-3-pentyl-4-(4-fluorophenyl)-5-hydroxymethyl-6-isopropylpyridine]	–
–	C=CC(O)c1nc(C(C)C)c(CO)c(-c2ccc(F)cc2)c1CCCCC (stereo not drawn) [Example 206, 2-(1-Hydroxyprop-2-enyl)-3-pentyl-4-(4-fluorophenyl)-5-hydroxymethyl-6-isopropylpyridine]	inhibition at 20 µM: 44.6%
18 µM	CCCCCc1c(C(C)O)nc(C(C)C)c(CO)c1-c1ccc(F)cc1 (stereo not drawn) [Example 210, 2-(1-Hydroxyethyl)-3-pentyl-4-(4-fluorophenyl)-5-hydroxymethyl-6-isopropylpyridine]	–

IC50 (125I-glucagon, read-out: IC50)	SMILES	also measured
–	CCCCCc1c(C(O)CCC)nc(C(C)C)c(CO)c1-c1ccc(F)cc1 (stereo not drawn) [Example 211, 2-(1-Hydroxybutyl)-3-pentyl-4-(4-fluorophenyl)-5-hydroxymethyl-6-isopropylpyridine]	IC50 (IC50, 125I-glucagon): 19 µM
14 µM	CCCCCc1c(C(O)CC)nc(C(C)C)c(CO)c1-c1ccc(F)cc1 (stereo not drawn) [Example 212, 2-(1-Hydroxypropyl)-3-pentyl-4-(4-fluorophenyl)-5-hydroxymethyl-6-isopropylpyridine]	–
5 µM	C=Cc1nc(C(C)C)c(CO)c(-c2ccc(F)cc2)c1CCCCC [Example 214, 2-Ethenyl-3-pentyl-4-(4-fluorophenyl)-5-hydroxymethyl-6-isopropylpyridine]	–
19 µM	CCCCCc1c(C=CC(=O)OC)nc(C(C)C)c(CO)c1-c1ccc(F)cc1 [Example 215, 2-(2-Carbomethoxyethenyl)-3-pentyl-4-(4-fluorophenyl)-5-hydroxymethyl-6-isopropylpyridine]	–
8 µM	CCCCCc1c(C(C)OCC)nc(C(C)C)c(CO)c1-c1ccc(F)cc1 (stereo not drawn) [Example 217, 2-(1-Ethoxyethyl)-3-pentyl-4-(4-fluorophenyl)-5-hydroxymethyl-6-isopropylpyridine]	–
6.5 µM	CCCCCc1c(C(C)=O)nc(C(C)C)c(CO)c1-c1ccc(F)cc1 [Example 218, 2-Acetyl-3-pentyl-4-(4-fluorophenyl)-5-hydroxymethyl-6-isopropylpyridine]	–
–	CCCCCc1c(C(C)(C)O)nc(C(C)C)c(CO)c1-c1ccc(F)cc1 [Example 219, 2-(1-Hydroxy-1-methylethyl)-3-pentyl-4-(4-fluorophenyl)-5-hydroxymethyl-6-isopropylpyridine]	inhibition at 20 µM: 5.11%
3 µM	CCCCCc1c(C=C(C)C)nc(C(C)C)c(CO)c1-c1ccc(F)cc1 [Example 226, 2-Isopropyl-3-hydroxymethyl-4-(4-fluorophenyl)-5-pentyl-6-(2-methylpropenyl)pyridine]	–
1.3 µM	CCCCCc1c(CCc2ccccc2)nc(C(C)C)c(CO)c1-c1ccc(F)cc1 [Example 227, 2-Isopropyl-3-hydroxymethyl-4-(4-fluorophenyl)-5-pentyl-6-(2-phenylethyl)pyridine]	–
2 µM	CCCCCc1c(CC(C)C)nc(C(C)C)c(CO)c1-c1ccc(F)cc1 [Example 228, 2-Isopropyl-3-hydroxymethyl-4-(4-fluorophenyl)-5-pentyl-6-(2-methylpropyl)pyridine]	–
0.8 µM	CCCCCc1c(CCC(C)C)nc(C(C)C)c(CO)c1-c1ccc(F)cc1 [Example 229, 2-Isopropyl-3-hydroxymethyl-4-(4-fluorophenyl)-5-pentyl-6-(3-methylbutyl)pyridine]	–
0.9 µM	CC(C)c1nc2c(c(-c3ccc(F)cc3)c1CO)CCCC2(C)C [Example 230, 2-Isopropyl-3-hydroxymethyl-4-(4-fluorophenyl)-5,6,7,8-tetrahydro-8,8-dimethylquinoline]	–
0.5 µM	CC(C)c1nc2c(c(-c3ccc(F)cc3)c1C(C)O)CCCC2(C)C (stereo not drawn) [Example 231, 2-Isopropyl-3-(1-hydroxyethyl)-4-(4-fluorophenyl)-5,6,7,8-tetrahydro-8,8-dimethylquinoline]	–
0.6 µM	CC(C)c1nc(C(C)C)c(C(C)O)c(-c2ccc(F)cc2)c1-c1ccccc1 (stereo not drawn) [Example 233, 2,6-Diisopropyl-3-(1-hydroxyethyl)-4-(4-fluorophenyl)-5-phenylpyridine]	–
8 µM	CC(C)c1nc2c(c(-c3ccc(F)cc3)c1CO)CCC2(C)C [Example 234, 2-Isopropyl-3-hydroxymethyl-4-(4-fluorophenyl)-7,7-dimethyl-5H-cyclopenta[b]pyridine]	–
3.1 µM	CC(C)c1nc2c(c(-c3ccc(F)cc3)c1C(C)O)CCC2(C)C (stereo not drawn) [Example 235, 2-Isopropyl-3-(1-hydroxyethyl)-4-(4-fluorophenyl)-7,7-dimethyl-5H-cyclopenta[b]pyridine]	–
4 µM	CC1=CC(C)(C)Cc2c1nc(C(C)C)c(CO)c2-c1ccc(F)cc1 [Example 236, 2-Isopropyl-3-hydroxymethyl-4-(4-fluorophenyl)-5,6-dihydro-6,6,8-trimethylquinoline]	–
1.2 µM	CC1=CC(C)(C)Cc2c1nc(C(C)C)c(C(C)O)c2-c1ccc(F)cc1 (stereo not drawn) [Example 237, 2-Isopropyl-3-(1-hydroxyethyl)-4-(4-fluorophenyl)-5,6-dihydro-6,6,8-trimethylquinoline]	–
0.005 µM	CCCc1c(C(C)C)cc(C(C)C)c(C(C)O)c1-c1ccc(F)cc1O (stereo not drawn) [Example 242, 3,5-Diisopropyl-2-(1-hydroxyethyl)-6-propyl-4'-fluoro-2'-hydroxy-1,1'-biphenyl]	–
0.011 µM	CCc1c(C(C)C)cc(C(C)C)c(C(C)O)c1-c1ccc(F)cc1O (stereo not drawn) [Example 246, 3,5-Diisopropyl-2-(1-hydroxyethyl)-6-ethyl-4'-fluoro-2'-hydroxy-1,1'-biphenyl]	–
0.006 µM	CCCCCc1c(C(C)C)cc(C(C)C)c(C(C)O)c1-c1ccc(F)cc1O (stereo not drawn) [Example 247, 3,5-Diisopropyl-2-(1-hydroxyethyl)-6-pentyl-4'-fluoro-2'-hydroxy-1,1'-biphenyl]	–
